Measured values: the NIST ThermoML archive (doi:10.1021/je200921u)
± gives the expanded uncertainty stated by the source. One block for each molecule: values may come before it.

Conditions: Liquid, Ebulliometric method (Recirculating still)

vapor or sublimation pressure (351.35 K): 101.3 ± 2.6 kPa
vapor or sublimation pressure (356.11 K): 121.3 ± 3.1 kPa
vapor or sublimation pressure (363.55 K): 161.3 ± 4.1 kPa
vapor or sublimation pressure (369.55 K): 201.3 ± 5.1 kPa
Structure (SMILES): CCO [ethanol]

Structure (SMILES): Cc1ccccc1 [toluene]
vapor or sublimation pressure (383.55 K): 101.3 ± 2.7 kPa
vapor or sublimation pressure (390.25 K): 121.3 ± 3.2 kPa
vapor or sublimation pressure (390.26 K): 121.3 ± 3.2 kPa
vapor or sublimation pressure (400.75 K): 161.3 ± 4.3 kPa
vapor or sublimation pressure (409.65 K): 201.3 ± 5.3 kPa

vapor or sublimation pressure (355.35 K): 101.3 ± 2.6 kPa
vapor or sublimation pressure (359.95 K): 121.3 ± 3.1 kPa
vapor or sublimation pressure (367.65 K): 161.3 ± 4.1 kPa
vapor or sublimation pressure (373.65 K): 201.3 ± 5.1 kPa
Structure (SMILES): CC(C)O [propan-2-ol]
